Here are results for 5 cell lines from the supplement of paper PMC10307832.

What all share (test): relative viability (nuclei count vs DMSO), 5 days (fraction); higher = more cells survive
Compound in the test “OSI-027 + Vorinostat”: COc1cccc2cc(-c3nc([C@H]4CC[C@H](C(=O)O)CC4)n4ncnc(N)c34)[nH]c12 [OSI-027] + O=C(CCCCCCC(=O)Nc1ccccc1)NO [Vorinostat] (partner 1 µM)
The procedure, abridged:
(§1)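 Lung cancer cell lines, seeded in 1536-well plates, were treated the following day by pin tool with a single drug or with five library-drug doses (not always all listed) in √10 steps on top of a fixed anchor-drug dose. Cells were fixed and nuclei stained in one step after 5 days, and nuclei were counted. Relative viability is the nuclei count for treated wells divided by that for vehicle wells, reported as medians of duplicate plates.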

Compound in the test “Alpelisib + Luminespib”: Cc1nc(NC(=O)N2CCC[C@H]2C(N)=O)sc1-c1ccnc(C(C)(C)C(F)(F)F)c1 [Alpelisib] + CCNC(=O)c1noc(-c2cc(C(C)C)c(O)cc2O)c1-c1ccc(CN2CCOCC2)cc1 [Luminespib] (partner 0.01 µM)
The procedure, abridged:
as §1

Compound in the test “OSI-027 + Crizotinib”: COc1cccc2cc(-c3nc([C@H]4CC[C@H](C(=O)O)CC4)n4ncnc(N)c34)[nH]c12 [OSI-027] + C[C@@H](Oc1cc(-c2cnn(C3CCNCC3)c2)cnc1N)c1c(Cl)ccc(F)c1Cl [Crizotinib] (partner 1 µM)
The procedure, abridged:
as §1

Compound in the test “Vemurafenib + Navitoclax”: CCCS(=O)(=O)Nc1ccc(F)c(C(=O)c2c[nH]c3ncc(-c4ccc(Cl)cc4)cc23)c1F [Vemurafenib] + CC1(C)CCC(c2ccc(Cl)cc2)=C(CN2CCN(c3ccc(C(=O)NS(=O)(=O)c4ccc(N[C@H](CCN5CCOCC5)CSc5ccccc5)c(S(=O)(=O)C(F)(F)F)c4)cc3)CC2)C1 [Navitoclax] (partner 0.5 µM)
An outline of the steps:
as §1

As for NCI-H1915, the relative viability was found to be 0.542 with OSI-027 + Vorinostat (first compound 0.01 µM); 0.502 with OSI-027 + Vorinostat (first compound 0.03162 µM); 0.479 with OSI-027 + Vorinostat (first compound 0.1 µM); 0.426 with OSI-027 + Vorinostat (first compound 0.3162 µM); 0.34 with OSI-027 + Vorinostat (first compound 1 µM); 0.738 with Alpelisib + Luminespib (first compound 0.04 µM). Besides, the relative viability with Alpelisib + Luminespib (first compound 0.1265 µM) amounted to 0.725; with Alpelisib + Luminespib (first compound 0.4 µM), 0.829; with Alpelisib + Luminespib (first compound 1.265 µM) it was 0.643; with Alpelisib + Luminespib (first compound 4 µM), 0.766; with OSI-027 + Crizotinib (first compound 0.01 µM), 0.928; with OSI-027 + Crizotinib (first compound 0.03162 µM) it was 0.829. Further, the relative viability in the test with OSI-027 + Crizotinib (first compound 0.1 µM) worked out at 0.931; with OSI-027 + Crizotinib (first compound 0.3162 µM), 0.896; in the test with OSI-027 + Crizotinib (first compound 1 µM) it was 0.584; with Vemurafenib + Navitoclax (first compound 0.03162 µM), 0.757; in the test with Vemurafenib + Navitoclax (first compound 0.1 µM), 0.795; with Vemurafenib + Navitoclax (first compound 0.3162 µM), 0.745. Also, the relative viability in the test with Vemurafenib + Navitoclax (first compound 1 µM) was 0.789.
For LC-2-ad, the relative viability with OSI-027 + Vorinostat (first compound 0.01 µM) came to 0.718; with OSI-027 + Vorinostat (first compound 0.03162 µM), 0.703; with OSI-027 + Vorinostat (first compound 0.1 µM), 0.758; with OSI-027 + Vorinostat (first compound 0.3162 µM) it was 0.854; with OSI-027 + Vorinostat (first compound 1 µM), 0.549; in the test with Alpelisib + Luminespib (first compound 0.04 µM) it was 0.985. The relative viability with Alpelisib + Luminespib (first compound 0.1265 µM) was 0.97; in the test with Alpelisib + Luminespib (first compound 0.4 µM), 1.3; in the test with Alpelisib + Luminespib (first compound 1.265 µM), 0.846; with Alpelisib + Luminespib (first compound 4 µM), 0.827; with OSI-027 + Crizotinib (first compound 0.01 µM), 0.49; in the test with OSI-027 + Crizotinib (first compound 0.03162 µM), 0.483. Also, the relative viability with OSI-027 + Crizotinib (first compound 0.1 µM) was 0.458; with OSI-027 + Crizotinib (first compound 0.3162 µM), 0.474; with OSI-027 + Crizotinib (first compound 1 µM) it was 0.384; with Vemurafenib + Navitoclax (first compound 0.03162 µM), 0.457; with Vemurafenib + Navitoclax (first compound 0.1 µM), 0.422; in the test with Vemurafenib + Navitoclax (first compound 0.3162 µM) it was 0.535. Besides, the relative viability with Vemurafenib + Navitoclax (first compound 1 µM) was found to be 0.46.
As to NCI-H2126, the relative viability in the test with OSI-027 + Vorinostat (first compound 0.01 µM) is 0.703; with OSI-027 + Vorinostat (first compound 0.03162 µM), 0.682; with OSI-027 + Vorinostat (first compound 0.1 µM) it was 0.692; with OSI-027 + Vorinostat (first compound 0.3162 µM), 0.627; with OSI-027 + Vorinostat (first compound 1 µM), 0.586; with Alpelisib + Luminespib (first compound 0.04 µM), 0.946. The relative viability in the test with Alpelisib + Luminespib (first compound 0.1265 µM) worked out at 0.848; with Alpelisib + Luminespib (first compound 0.4 µM), 0.854; with Alpelisib + Luminespib (first compound 1.265 µM), 0.776; in the test with Alpelisib + Luminespib (first compound 4 µM) it was 0.667; with OSI-027 + Crizotinib (first compound 0.01 µM) it was 1.04; with OSI-027 + Crizotinib (first compound 0.03162 µM), 0.986. For the same cell line, the relative viability with OSI-027 + Crizotinib (first compound 0.1 µM) amounted to 0.996; with OSI-027 + Crizotinib (first compound 0.3162 µM) it was 0.915; with OSI-027 + Crizotinib (first compound 1 µM), 0.664; in the test with Vemurafenib + Navitoclax (first compound 0.03162 µM) it was 0.808; in the test with Vemurafenib + Navitoclax (first compound 0.1 µM) it was 0.778; in the test with Vemurafenib + Navitoclax (first compound 0.3162 µM), 0.825. Moreover, the relative viability with Vemurafenib + Navitoclax (first compound 1 µM) stood at 0.83.
Take HCC-44: the relative viability stood at 1.11 in the test with OSI-027 + Vorinostat (first compound 0.01 µM); 1.16 with OSI-027 + Vorinostat (first compound 0.03162 µM); 1.17 in the test with OSI-027 + Vorinostat (first compound 0.1 µM); 1.09 with OSI-027 + Vorinostat (first compound 0.3162 µM); 0.757 in the test with OSI-027 + Vorinostat (first compound 1 µM); 1.11 with Alpelisib + Luminespib (first compound 0.04 µM). The relative viability was found to be 1.08 with Alpelisib + Luminespib (first compound 0.1265 µM); 1.2 with Alpelisib + Luminespib (first compound 0.4 µM); 0.614 with Alpelisib + Luminespib (first compound 1.265 µM); 0.84 with Alpelisib + Luminespib (first compound 4 µM); 0.819 in the test with OSI-027 + Crizotinib (first compound 0.01 µM); 0.794 in the test with OSI-027 + Crizotinib (first compound 0.03162 µM). For the same cell line, the relative viability with OSI-027 + Crizotinib (first compound 0.1 µM) is 0.817; in the test with OSI-027 + Crizotinib (first compound 0.3162 µM) it was 0.737; with OSI-027 + Crizotinib (first compound 1 µM), 0.343; with Vemurafenib + Navitoclax (first compound 0.03162 µM), 0.879; with Vemurafenib + Navitoclax (first compound 0.1 µM), 0.931; with Vemurafenib + Navitoclax (first compound 0.3162 µM), 0.973. For the same cell line, in the test with Vemurafenib + Navitoclax (first compound 1 µM), the relative viability came to 1.03.
In the case of HOP-62, the relative viability in the test with OSI-027 + Vorinostat (first compound 0.01 µM) came to 0.586; with OSI-027 + Vorinostat (first compound 0.03162 µM) it was 0.662; with OSI-027 + Vorinostat (first compound 0.1 µM), 0.53; with OSI-027 + Vorinostat (first compound 0.3162 µM) it was 0.546; with OSI-027 + Vorinostat (first compound 1 µM) it was 0.296; in the test with Alpelisib + Luminespib (first compound 0.04 µM), 0.943. For the same cell line, the relative viability with Alpelisib + Luminespib (first compound 0.1265 µM) stood at 0.957; with Alpelisib + Luminespib (first compound 0.4 µM) it was 1.04; with Alpelisib + Luminespib (first compound 1.265 µM), 0.83; with Alpelisib + Luminespib (first compound 4 µM), 0.956; with OSI-027 + Crizotinib (first compound 0.01 µM), 1.02; in the test with OSI-027 + Crizotinib (first compound 0.03162 µM), 0.922. Moreover, the relative viability with OSI-027 + Crizotinib (first compound 0.1 µM) amounted to 0.999; in the test with OSI-027 + Crizotinib (first compound 0.3162 µM), 1.36; with OSI-027 + Crizotinib (first compound 1 µM), 0.428; in the test with Vemurafenib + Navitoclax (first compound 0.03162 µM), 0.939; in the test with Vemurafenib + Navitoclax (first compound 0.1 µM), 1.12; with Vemurafenib + Navitoclax (first compound 0.3162 µM) it was 0.966. Also, in the test with Vemurafenib + Navitoclax (first compound 1 µM), the relative viability amounted to 1.05.
